{"source": "patent US20240082273A1", "about": "“NEUROKININ INHIBITORS SUCH AS APREPITANT FOR TREATING NON SMALL CELL LUNG CARCINOMA OR BREAST CANCER WITHOUT MUTATIONS” (priority 2020, published 2024)", "format_in_all_cases": "cell-based, human", "conditions_in_all_cases": "48 hours", "key": {"[1]": {"test_system": "lung cancer cell line with molecular profile EGFR+/ALK−/ROS1− (HCC4006)", "experiment": "MTT proliferation, NSCLC cell line with EGFR+/ALK−/ROS1− profile", "source_text": "(§1) EGFR, ALK and ROS1 are key molecular factors that may be used to determine pathological classification, prognosis, therapeutics and behaviour in patients with lung cancer. EGFR, ALK and ROS1 are biomarkers routinely analysed in the clinical practice of the management of patients with NSCLC. NSCLC with molecular profile EGFR-/ALK-/ROS1- presents a better response to treatment with the NK1 inhibitor aprepitant, compared to lung cancer with different profiles (in particular, EGFR+/ALK-/ROS1- and EGFR-/ALK+/ROS1-, in which EGFR and ALK respectively contain mutations relative to their wild type gene). Commercial lines of lung cancer were used as shown in Table 2 together with their molecular profile. The molecular profile of the cancer cell lines was determined by sequencing and can be consulted in the Cancer Cell Line Encyclopaedia database of public access available at the url: https://portals.broadinstitute.org/ccle All cells were cultured in wells under vendor-recommended conditions and exposed to different concentrations of aprepitant for 48 hours. In each case a group of wells of cells were used to which no treatment was applied and which were considered as controls. At 48 hours the number of cells was measured. Eight cell lines of human were used for the study of NK1 inhibitors (Table 3). All of them were maintained in culture in their respective culture media (Gibco,Thermo Fisher Scientific) supplemented with 10% foetal bovine serum (FBS) (Gibco, Thermo Fisher Scientific), 2 mM L-Glutamine (Gln) (Sigma-Aldrich, Merk), and […] and […] Gibco, Thermo Fisher Scientific) in a humidified incubator at 37° C. and 5% CO2. Cell culture media used are Dulbecco's Modified Eagle Medium (DMEM), and RPMI Medium 1640 (RPMI-1640). To measure cell viability, the cytotoxicity of drugs in culture was evaluated using the 3-(4,5-Dimethyl-2-thiazolyl)-2,5-diphenyl-2H-tetrazolium bromide (MTT) reduction assay. This assay assesses cell viability through the indirect measurement of the activity of reductases that convert yellow soluble MTT into purple insoluble formazan salts. As MTT can only be reduced when these enzymes are active, the reaction is used as an indicator of the cell metabolic competence and, therefore, of viability. A variable number of cells (depending on the cell line) were seeded in 96 multi-well plates and grown during 24 hours. The following day, the culture medium was aspirated and fresh culture medium with the drug dissolved was added to the wells. After 24 hours or 48 hours cell viability was measurement by adding 10 μl of a 5 mg/ml MTT solution (M5655; Sigma-Aldrich) and 100 μl of HCl 0.01M-SDS 10% solution 4 hours later. After 24 hours, the absorbance was measured at 595 nm, using a multi-well plate reader (iMark, Bio-rad). Each condition was tested 5 times, obtaining 5 values of absorbance. All sample measurements were corrected using the blank (culture medium without cells) mean absorbance value, and normalized to positive control to determinate relative cell viability for each condition at 24 and 48 hours."}, "H358": {"test_system": "H358", "experiment": "MTT proliferation, H358", "source_text": "as §1"}, "[2]": {"test_system": "breast cancer cell line ER−/PR−/HER2+ (SkBr3)", "experiment": "MTT proliferation, breast cancer cell line ER−/PR−/HER2+", "description": "All cells were cultured in wells under vendor-recommended conditions and exposed to different concentrations of aprepitant for 48 hours. In each case a group of wells of cells were used to which no treatment was applied and which were considered as controls. At 48 hours the number of cells was measured. To measure cell viability, the cytotoxicity of drugs in culture was evaluated using the 3-(4,5-Dimethyl-2-thiazolyl)-2,5-diphenyl-2H-tetrazolium bromide (MTT) reduction assay. This assay assesses cell viability through the indirect measurement of the activity of reductases that convert yellow soluble MTT into purple insoluble formazan salts. As MTT can only be reduced when these enzymes are active, the reaction is used as an indicator of the cell metabolic competence and, therefore, of viability. A variable number of cells (depending on the cell line) were seeded in 96 multi-well plates and grown during 24 hours. The following day, the culture medium was aspirated and fresh culture medium with the drug dissolved was added to the wells. After 24 hours or 48 hours cell viability was measurement by adding 10 μl of a 5 mg/ml MTT solution (M5655; Sigma-Aldrich) and 100 μl of HCl 0.01M-SDS 10% solution 4 hours later. After 24 hours, the absorbance was measured at 595 nm, using a multi-well plate reader (iMark, Bio-rad). Each condition was tested 5 times, obtaining 5 values of absorbance. All sample measurements were corrected using the blank (culture medium without cells) mean absorbance value, and normalized to positive control to determinate relative cell viability for each condition at 24 and 48 hours."}, "H441": {"test_system": "H441", "experiment": "MTT proliferation, H441", "source_text": "as §1"}, "A549": {"test_system": "A549", "experiment": "MTT proliferation, A549", "source_text": "as §1"}, "H520": {"test_system": "H520", "experiment": "MTT proliferation, H520", "source_text": "as §1"}}, "data": [{"smiles": "C[C@@H](O[C@H]1OCCN(Cc2nc(=O)[nH][nH]2)[C@H]1c1ccc(F)cc1)c1cc(C(F)(F)F)cc(C(F)(F)F)c1", "note": "[Aprepitant]", "values": [{"measurement": "Mean proliferation", "setting": "[1]; aprepitant 1 μM", "result": 101.53}, {"measurement": "Mean proliferation", "setting": "[1]; aprepitant 3 μM", "result": 99.73}, {"measurement": "Mean proliferation", "setting": "[1]; aprepitant 5 μM", "result": 96.4}, {"measurement": "Mean proliferation", "setting": "[1]; aprepitant 10 μM", "result": 89.14}, {"measurement": "Mean proliferation", "setting": "[1]; aprepitant 20 μM", "result": 69.95}, {"measurement": "Mean proliferation", "setting": "[1]; aprepitant 30 μM", "result": 54.9}, {"measurement": "Mean proliferation", "setting": "[1]; aprepitant 40 μM", "result": 38.12}, {"measurement": "Mean proliferation", "setting": "[1]; aprepitant 50 μM", "result": 24.82}, {"measurement": "Mean proliferation", "setting": "[1]; aprepitant 60 μM", "result": 14.95}, {"measurement": "Mean proliferation", "setting": "H358; aprepitant 1 μM", "result": 101.3}, {"measurement": "Mean proliferation", "setting": "H358; aprepitant 3 μM", "result": 89.28}, {"measurement": "Mean proliferation", "setting": "H358; aprepitant 5 μM", "result": 87.69}, {"measurement": "Mean proliferation", "setting": "H358; aprepitant 10 μM", "result": 64.12}, {"measurement": "Mean proliferation", "setting": "H358; aprepitant 20 μM", "result": 43.44}, {"measurement": "Mean proliferation", "setting": "H358; aprepitant 30 μM", "result": 32.09}, {"measurement": "Mean proliferation", "setting": "H358; aprepitant 40 μM", "result": 27.23}, {"measurement": "Mean proliferation", "setting": "H358; aprepitant 50 μM", "result": 3.10}, {"measurement": "Mean proliferation", "setting": "H358; aprepitant 60 μM", "result": 2.86}, {"measurement": "Mean proliferation", "setting": "[2]; aprepitant 0.3 μM", "result": 99.8}, {"measurement": "Mean proliferation", "setting": "[2]; aprepitant 1 μM", "result": 100.23}, {"measurement": "Mean proliferation", "setting": "[2]; aprepitant 3 μM", "result": 95.65}, {"measurement": "Mean proliferation", "setting": "[2]; aprepitant 10 μM", "result": 81.8}, {"measurement": "Mean proliferation", "setting": "[2]; aprepitant 20 μM", "result": 65.97}, {"measurement": "Mean proliferation", "setting": "[2]; aprepitant 30 μM", "result": 45.14}, {"measurement": "Mean proliferation", "setting": "[2]; aprepitant 40 μM", "result": 32.62}, {"measurement": "Mean proliferation", "setting": "[2]; aprepitant 50 μM", "result": 23.78}, {"measurement": "Mean proliferation", "setting": "[2]; aprepitant 60 μM", "result": 12.87}, {"measurement": "Mean proliferation", "setting": "H441; aprepitant 1 μM", "result": 100.6}, {"measurement": "Mean proliferation", "setting": "H441; aprepitant 3 μM", "result": 90.97}, {"measurement": "Mean proliferation", "setting": "H441; aprepitant 5 μM", "result": 64.10}, {"measurement": "Mean proliferation", "setting": "H441; aprepitant 10 μM", "result": 61.08}, {"measurement": "Mean proliferation", "setting": "H441; aprepitant 20 μM", "result": 53.64}, {"measurement": "Mean proliferation", "setting": "H441; aprepitant 30 μM", "result": 37.56}, {"measurement": "Mean proliferation", "setting": "H441; aprepitant 40 μM", "result": 20.50}, {"measurement": "Mean proliferation", "setting": "H441; aprepitant 50 μM", "result": 3.14}, {"measurement": "Mean proliferation", "setting": "H441; aprepitant 60 μM", "result": 10.83}, {"measurement": "Mean proliferation", "setting": "A549; aprepitant 1 μM", "result": 96.56}, {"measurement": "Mean proliferation", "setting": "A549; aprepitant 3 μM", "result": 94.80}, {"measurement": "Mean proliferation", "setting": "A549; aprepitant 5 μM", "result": 64.40}, {"measurement": "Mean proliferation", "setting": "A549; aprepitant 10 μM", "result": 52.17}, {"measurement": "Mean proliferation", "setting": "A549; aprepitant 20 μM", "result": 40.48}, {"measurement": "Mean proliferation", "setting": "A549; aprepitant 30 μM", "result": 35.59}, {"measurement": "Mean proliferation", "setting": "A549; aprepitant 40 μM", "result": 21.55}, {"measurement": "Mean proliferation", "setting": "A549; aprepitant 50 μM", "result": 9.17}, {"measurement": "Mean proliferation", "setting": "A549; aprepitant 60 μM", "result": 11.36}, {"measurement": "Mean proliferation", "setting": "H520; aprepitant 1 μM", "result": 100.27}, {"measurement": "Mean proliferation", "setting": "H520; aprepitant 3 μM", "result": 98.27}, {"measurement": "Mean proliferation", "setting": "H520; aprepitant 5 μM", "result": 80.08}, {"measurement": "Mean proliferation", "setting": "H520; aprepitant 10 μM", "result": 66.40}, {"measurement": "Mean proliferation", "setting": "H520; aprepitant 20 μM", "result": 43.07}, {"measurement": "Mean proliferation", "setting": "H520; aprepitant 30 μM", "result": 29.80}, {"measurement": "Mean proliferation", "setting": "H520; aprepitant 40 μM", "result": 9.59}, {"measurement": "Mean proliferation", "setting": "H520; aprepitant 50 μM", "result": 5.78}, {"measurement": "Mean proliferation", "setting": "H520; aprepitant 60 μM", "result": "−1.07"}]}]}
